One data set deals with HepG2. Briefly: Cytotoxicity against human HepG2 cells by CCK8 assay. The data set is classed as functional, cell-based.
In a further data set the test system is L02. The data set can be described thus: Cytotoxicity against human L02 cells by CCK8 assay. The class given is cell-based.
In data set [1] the test system is A549. The data set can be described thus: Cytotoxicity against human A549 cells by CCK8 assay. The data set is classed as functional, cell-based.
For a further data set, the system named is CNE-2. Briefly: Cytotoxicity against human CNE2 cells by CCK8 assay. The class given is functional, cell-based.
Data set [2] concerns A549. The data set can be described thus: Inhibition of serum-induced cell migration in human A549 cells at 0.5 to 2 times IC50 measured up to 46 hrs by wound healing assay. The class given is functional, cell-based.
The nature of data set [3]: Cytotoxicity against HUVEC12 cells by CCK8 assay. The data set is classed as cell-based. As to conditions: Homo sapiens.
Data set [4] can be described thus: Inhibition of serum-induced cell migration in HUVEC12 cells at 0.5 to 2 times IC50 measured up to 17 hrs by wound healing assay. The data set is classed as cell-based. As to conditions: human.
In the next data set the test system is MCF7. Briefly: Cytotoxicity against human MCF7 cells by CCK8 assay. The class given is functional, cell-based.
Data set [5] has as its system HeLa. Briefly: Cytotoxicity against human HeLa cells by CCK8 assay. The data set is classed as functional, cell-based.
Data set [6] has as its system HeLa. The data set can be described thus: Inhibition of serum-induced cell migration in human HeLa cells at 0.5 to 2 times IC50 measured up to 17 hrs by wound healing assay. The data set is classed as functional, cell-based.

Results on six compounds are retold here after ChEMBL document CHEMBL4219074, “Borrelidins F-I, cytotoxic and cell migration inhibiting agents from mangrove-derived Streptomyces rochei SCSIO ZJ89” (Bioorg Med Chem, 2018).

The structures appear in SMILES notation. Active and inactive are the calls of the source. The calls are words filed in the database; no cut-off is given here. Some results are limits rather than exact numbers.

On to `C[C@@H]1C[C@H](C)C[C@H](C)[C@@H](O)CC(=O)O[C@@H]([C@@H]2CCC[C@H]2C(=O)O)C/C=C\C=C(/C#N)[C@@H](O)[C@@H](C)C1`, for which the IC50 with HepG2 stood at 2050 nM; with L02 it was 7.26 µM; in the data set on A549 [1] it was 1.22 µM; in the data set with CNE-2, 1.27 µM; in data set [3] it was 6.13 µM; with MCF7, 120 nM. The compound further yielded an IC50 with HeLa [5] of 1.28 µM. The inhibition entry in the data set with A549 [2] and with HeLa [6] was “Active” each time. Moreover, in [4], the Activity result was “Non-Toxic”.

Consider `C[C@@H]1C[C@H](C)C[C@H](C)[C@@H](O)CC(=O)O[C@@H]([C@@H]2CCC[C@H]2C(=O)O)C/C=C\C=C(/C#N)[C@H](O)[C@@H](C)C1`, for which the IC50 with HepG2 came to 17500 nM; in the data set with L02 it was 22.8 µM; in the data set on A549 [1], 15.2 µM; in the data set with CNE-2, 14.4 µM; in data set [3], 14.3 µM; in the data set on MCF7 it was 1150 nM. The compound further registered a half-inhibitory concentration (IC50) in the data set on HeLa [5] of 15.1 µM.

Consider `C[C@@H]1C[C@H](C)C[C@H](C)[C@@H](O)CC(=O)O[C@@H]([C@@H]2CCC[C@H]2C(=O)O)C/C=C/C=C(/C#N)[C@H](O)[C@@H](C)C1`, for which the 50% inhibitory concentration (IC50) in the data set with HepG2 was found to be 2190 nM; in the data set with L02, 0.98 µM; in the data set on A549 [1], 1.69 µM; with CNE-2 it was 1.55 µM; in data set [3], 1.44 µM; in the data set with MCF7, 120 nM. The half-inhibitory concentration (IC50) with HeLa [5] came out at 2.19 µM.

`C[C@@H]1C[C@H](C)C[C@H](C)[C@@H](O)CC(=O)O[C@@H]([C@@H]2CCC[C@H]2C(=O)O)C/C=C/C=C(/C#N)[C@@H](O)[C@@H](C)C1`: the half-maximal inhibitory concentration (IC50) worked out at 14600 nM in the data set with HepG2; 8.73 µM with L02; 9.2 µM in the data set with A549 [1]; 9.35 µM with CNE-2; 12 µM in [3]; 1210 nM in the data set with MCF7. This compound registered a half-inhibitory concentration (IC50) in the data set on HeLa [5] of 11.6 µM.

On to `COc1cccc2c1C(=O)c1c(O)c3c(c(O)c1C2=O)C[C@@](O)(C(=O)CO)C[C@@H]3O[C@H]1C[C@H](N)[C@H](O)[C@H](C)O1` [DOXORUBICIN], for which the IC50 in the data set with HepG2 was 1130 nM; in the data set on L02, 13.2 µM; in the data set with A549 [1], 3.41 µM; in the data set on CNE-2, 3.52 µM; in data set [3], 34.2 µM.

As to `CC(=O)NC/C1=C/C=C/C[C@H]([C@@H]2CCC[C@H]2C(=O)O)OC(=O)C[C@H](O)[C@@H](C)C[C@@H](C)C[C@@H](C)C[C@H](C)[C@@H]1O`, the IC50 in the data set on HepG2 is above 50000 nM; in the data set with L02, above 50 µM; in the data set with A549 [1], above 50 µM; in the data set with CNE-2, above 50 µM; in data set [3] it was above 50 µM; in the data set with MCF7, above 50000 nM. Further, the IC50 in the data set on HeLa [5] is above 50 µM. Also, the inhibition result in the data set with A549 [2] and in the data set with HeLa [6] was “inactive” in each case.
